In test [1] the test system is patients with polymyositis, dermatomyositis and inclusion body myositis. The following applies: cited from earlier work.
For test [2], the system named is C-protein-induced mouse myositis model (CIM mouse). As to the kind of experiment: Inflammation score of muscular tissue in C-protein-induced mouse myositis model (CIM). The test is classed as in vivo. Particulars: 0.75 g/kg BCAA or 20 mg/kg PSL oral consecutively from 3 days after immunization, 21 days after immunization, vs Vehicle group, FIG. 1. As to the method: Using C-protein-induced mouse myositis model (C-protein-induced Myositis: CIM), the effect of BCAA on the inflammation of muscular tissues was examined. For antigen immunization of C57BL/6 mouse (female, 8-week-old), an adjuvant containing 200 μg C-protein and 100 μg killed tuberculosis bacterium (Mycobacterium butyricum), and Complete Freund's adjuvant (CFA) as a component was intradermally injected to the hindpaw sole and tail base, C-protein-free CFA injected to the base of forelimb, and 0.25 μg pertussis toxin was intraperitoneally injected. As an adjuvant control without immunization with an antigen, CFA was intradermally injected to the same sites. From three days after immunization, 0.75 g/kg BCAA (mixture of isoleucine, leucine and valine at a weight ratio of isoleucine:leucine:valine=1:2:1.2) or 20 mg/kg Prednisolone (PSL) was orally administered consecutively, and they were used as the BCAA administration group and the PSL administration group, respectively. In addition, 0.5% methylcellulose and 5% gamma cyclodextrin were orally administered instead of BCAA and the like to give the Vehicle administration group. After 21 days from immunization, the muscle was collected, and the levels of inflammation of quadriceps and flexor muscles were evaluated by the inflammation score. […]

Test [3] has the same test system. As to the kind of experiment: Muscle weight (quadriceps, hamstring/flexor muscles, triceps) in CIM mouse. The test is classed as in vivo. The following applies: 21 days after immunization. On the procedure: (§1) Using C-protein-induced mouse myositis model (C-protein-induced Myositis: CIM), the effect of BCAA on the inflammation of muscular tissues was examined. For antigen immunization of C57BL/6 mouse (female, 8-week-old), an adjuvant containing 200 μg C-protein and 100 μg killed tuberculosis bacterium (Mycobacterium butyricum), and Complete Freund's adjuvant (CFA) as a component was intradermally injected to the hindpaw sole and tail base, C-protein-free CFA injected to the base of forelimb, and 0.25 μg pertussis toxin was intraperitoneally injected. As an adjuvant control without immunization with an antigen, CFA was intradermally injected to the same sites. […] After 21 days from immunization, the muscle was collected, and the levels of inflammation of quadriceps and flexor muscles were evaluated by the inflammation score.
Quadriceps, flexor muscles and triceps were collected from the CIM mouse and control mouse (Ctrl) after 21 days from immunization, and the muscle weight was measured. […]
Quadriceps, hamstrings, and triceps were collected from the CIM mouse and control mouse (Ctrl) of Example 5 after 21 days from the immunization, and the muscle weight was measured.

For test [4] the test system is unchanged. In words: Forelimb muscle strength by grip dynamometer in CIM mouse. The test is classed as in vivo. The following applies: 20 days after immunization. As to the method: as §1
After 20 days from immunization, the muscle strength of the forelimb of each mouse was measured by a veterinary grip dynamometer MK-380CM/R (Muromachi Kikai Co., Ltd.). The measurement was performed 6 times for each animal, and the average thereof was determined. […]
The muscle strength of the forelimb of each mouse was measured after 20 days from the immunization in Example 5 using veterinary grip dynamometer MK-380CM/R (Muromachi Kikai Co., Ltd.). The measurement was performed 6 times for each animal, and the average thereof was determined.

The test system is the same in test [5]. In words: Sectional area of fast muscle fiber (MHC IIB-positive) of triceps in CIM mouse. The test is classed as in vivo. The following applies: triceps 21 days after immunization, 0.75 g/kg BCAA or 20 mg/kg PSL oral, histogram shift toward the left side = atrophy, FIG. 4. On the procedure: as §1
Since steroid myopathy is predominantly developed in the fast muscle fiber (MHC IIB-positive fiber), atrophy of the muscle fiber of the CIM mouse was evaluated by measuring the sectional area of the muscle fiber. The boundary area of the fast muscle fiber and the muscle fiber of the section of the triceps collected 21 days after the immunization was labeled by immune fluorescent staining using anti-MHC IIB antibody and anti-Laminin antibody (Sigma), and the sectional area of the MHC IIB-positive muscle fiber was measured using Image J software (NIH). […]

Turning to “Infliximab: anti-TNF antibody effective for rheumatoid arthritis”, in test [1] (patients with polymyositis, dermatomyositis and inclusion body myositis, Ann Rheum Dis. 2008;67(12):1670-7), the “effect on inflammation in patients” value was “aggravation of inflammation and activation of type I interferons”.
Consider Anakinra: IL-1 receptor antagonist, for which the anti-inflammatory effect entry in test [1] (polymyositis and dermatomyositis, Ann Rheum Dis. 2011;70:A80-A81) is recorded as “has not been observed”.
In the case of `C[C@]12C=CC(=O)C=C1CC[C@@H]1[C@@H]2[C@@H](O)C[C@@]2(C)[C@H]1CC[C@]2(O)C(=O)CO` [PSL, Prednisolone], the inflammation score result in test [2] is “significantly suppressed”. For the same molecule, the muscle weight entry was “did not increase” in test [3] (CIM mouse of Example 5, 0.25, 0.75 or 2.25 g/kg BCAA + 20 mg/kg PSL, or 20 mg/kg PSL alone, oral, FIG. 6) and “did not show improvement” in test [3] (CIM mouse, 0.75 g/kg BCAA or 20 mg/kg PSL oral, quadriceps, flexor muscles, triceps, FIG. 2). Further, in test [4] (CIM mouse of Example 5, 0.25, 0.75 or 2.25 g/kg BCAA + 20 mg/kg PSL, or 20 mg/kg PSL alone, oral, FIG. 7), the “strength of the forelimb muscle” value is “did not increase”. In addition, in test [4] (CIM mouse, 0.75 g/kg BCAA or 20 mg/kg PSL oral, FIG. 3), the “muscle strength of the forelimb” value is on record as “improvement effect was weak”. Besides, the “distribution of fast muscle fiber sectional area (muscle fiber atrophy)” value in test [5] is reported as “tendency was stronger”.

The values are drawn from patent publication US20170151200A1, “PROPHYLACTIC OR THERAPEUTIC AGENT FOR IDIOPATHIC INFLAMMATORY MYOPATHIES” (EA Pharma Co., Ltd., priority 2012, published 2017).
